Source: BindingDB's records for patent US20250313563 (The Broad Institute, 2025)
pIC50: −log10 of the molar value. Values joined by “and” are separate entries in the source; they are usually repeats but may differ in a detail not shown here. Equal values may be shown once.

How the values were obtained:
[1] = molecular target: Glycogen synthase kinase-3 alpha (Homo sapiens, UniProt P49840); assay: TR-FRET Assay
How it was run: (§1)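 Enzyme and test compound were first incubated together for 30 minutes in assay buffer. The kinase reaction followed and was stopped with EDTA. The pSer641 signal was read by time-resolved FRET.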

[2] = molecular target: Glycogen synthase kinase-3 beta (Homo sapiens, UniProt P49841); assay: TR-FRET Assay
How it was run: as §1

Sequence of Glycogen synthase kinase-3 beta (P49841 whole entry): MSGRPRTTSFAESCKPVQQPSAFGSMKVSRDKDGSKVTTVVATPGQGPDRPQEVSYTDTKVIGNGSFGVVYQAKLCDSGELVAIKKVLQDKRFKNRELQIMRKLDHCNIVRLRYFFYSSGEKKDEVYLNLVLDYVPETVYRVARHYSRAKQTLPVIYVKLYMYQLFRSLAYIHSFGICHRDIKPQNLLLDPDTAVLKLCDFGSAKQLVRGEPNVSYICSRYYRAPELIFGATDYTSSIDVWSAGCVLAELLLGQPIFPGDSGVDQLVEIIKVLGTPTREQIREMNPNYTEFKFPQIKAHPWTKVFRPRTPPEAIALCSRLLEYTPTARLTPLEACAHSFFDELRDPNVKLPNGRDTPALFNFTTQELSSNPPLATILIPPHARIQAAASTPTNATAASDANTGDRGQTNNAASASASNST
Sequence of Glycogen synthase kinase-3 alpha (P49840 whole entry): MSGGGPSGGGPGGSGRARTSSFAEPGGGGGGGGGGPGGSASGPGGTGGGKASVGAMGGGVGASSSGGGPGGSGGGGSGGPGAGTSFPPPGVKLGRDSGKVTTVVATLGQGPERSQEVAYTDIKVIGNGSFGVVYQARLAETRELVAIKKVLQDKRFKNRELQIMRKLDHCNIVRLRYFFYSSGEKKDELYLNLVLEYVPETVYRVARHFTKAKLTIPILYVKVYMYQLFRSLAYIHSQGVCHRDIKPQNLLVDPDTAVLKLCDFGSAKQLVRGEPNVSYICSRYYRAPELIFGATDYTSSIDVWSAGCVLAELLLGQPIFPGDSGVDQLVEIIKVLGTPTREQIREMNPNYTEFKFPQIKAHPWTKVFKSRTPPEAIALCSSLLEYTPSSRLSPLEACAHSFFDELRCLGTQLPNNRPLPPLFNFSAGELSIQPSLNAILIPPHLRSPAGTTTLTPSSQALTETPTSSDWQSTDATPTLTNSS

| SMILES | pIC50 [1] | pIC50 [2] |
| --- | --- | --- |
| CC[C@@]1(c2cccc(-c3cnn(Cc4cccc(C(F)(F)F)c4)c3)c2)C2=CN=NC2NC2=C1C(=O)NC(C)(C)C2 (some centres not stated) [US20250313563, Compound 951848] | > 7.00 | 6.00 to 7.00 |
| CC[C@@]1(c2cccc(-c3cnn4cc(F)cc(F)c34)c2)C2=CN=NC2NC2=C1C(=O)NC(C)(C)C2 (some centres not stated) [US20250313563, Compound 950565] | > 7.00 | 6.00 to 7.00 |
| CC[C@]1(c2cccc(-c3ccncc3C)c2)C2=C(CC(C)(C)NC2=O)NC2N=NC(C)=C21 (some centres not stated) [US20250313563, Compound 947409] | 5.30 to 6.00 | < 5.30 |
| CCC1(c2cccc(N3CCCC3)c2)C2=C(CC(C)(C)CC2=O)NC2N=NC(C(F)(F)F)=C21 (configuration not stated) [US20250313563, Compound 810506] | > 7.00 | > 7.00 |
| CC[C@]1(c2cccc(N3CCOc4ncccc43)c2)C2=CN=NC2NC2=C1C(=O)CC(C)(C)C2 (some centres not stated) [US20250313563, Compound 932643] | 6.00 to 7.00 | 5.30 to 6.00 |
| CC[C@@]1(c2cccc(C3CC3)c2)C2=CN=NC2NC2=C1C(=O)CC(C)(C)C2 (some centres not stated) [US20250313563, Compound 811558] | 5.30 to 6.00 | < 5.30 |
| CCC1(c2cccc(N3CCCC3)c2)C2=CN=NC2NC2=C1C(=O)CC(C)(C)C2 (configuration not stated) [US20250313563, Compound 801317] | 6.00 to 7.00 | 6.00 to 7.00 |
| CCC1(c2cccc(-c3ccnc(C(F)(F)F)c3)c2)C2=C(CC(C)(C)CC2=O)NC2N=NC(C)=C21 (configuration not stated) [US20250313563, Compound 883989] | > 7.00 | 6.00 to 7.00 |
| CCC1(c2cccc(N(C)c3ccnc(C(F)(F)F)c3)c2)C2=CN=NC2NC2=C1C(=O)CC(C)(C)C2 (configuration not stated) [US20250313563, Compound 913254] | > 7.00 | > 7.00 |
| CC1(C)CC(=O)C2=C(C1)NC1=C(CN=N1)C21CCN(S(=O)(=O)C2CCCC2)CC1 [US20250313563, Compound 909206] | > 7.00 | > 7.00 and 6.00 to 7.00 |
| CC1(C)CC(=O)C2=C(C1)NC1N=NC=C1C21CCCS(=O)(=O)CC1 (configuration not stated) [US20250313563, Compound 927343] | > 7.00 | 6.00 to 7.00 |
| CCOc1ccc(S(=O)(=O)N2CCC3(CC2)C2=C(N=NC2)NC2=C3C(=O)CC(C)(C)C2)cc1 [US20250313563, Compound 945670] | > 7.00 and 6.00 to 7.00 | > 7.00 and 5.30 to 6.00 |
| CCC1(c2cccc(-c3ccnn3C)c2)C2=CN=NC2NC2=C1C(=O)NC(C)(C)C2 (configuration not stated) [US20250313563, Compound 914971] | > 7.00 | 6.00 to 7.00 |
| CC1(C)CC(=O)C2=C(C1)NC1N=NC(C(F)(F)F)=C1[C@@]21CCc2c(F)cccc21 (some centres not stated) [US20250313563, Compound 806568] | 5.30 to 6.00 | 6.00 to 7.00 |
| COc1cncc(F)c1-c1cccc([C@@]2(C)C3=C(CC(C)(C)CC3=O)NC3=C2C(CC(C)(C)C)N=N3)c1 (some centres not stated) [US20250313563, Compound 108956] | < 5.30 | 5.30 to 6.00 |
| CC[C@@]1(c2cccc(-c3cnn(C)c3C)c2)C2=C(CC(C)(C)NC2=O)NC2N=NC(C(F)(F)F)=C21 (some centres not stated) [US20250313563, Compound 947819] | > 7.00 | > 7.00 |
| CC[C@@]1(c2cccc(C(F)(F)F)c2)C2=CN=NC2NC2=C1C(=O)NC[C@H]2C (some centres not stated) [US20250313563, Compound 945385] | < 5.30 | < 5.30 |
| CC1CCCC1C(=O)N1CC2(C1)CC1(CO2)C2=C(N=NC2)NC2=C1C(=O)CC(C)(C)C2 (configuration not stated) [US20250313563, Compound 947274] | > 7.00 | 6.00 to 7.00 |
| CCC1(c2ccc(F)cc2)C2=C(N=NC2)NC2=C1C(=O)CC(C)(C)C2 (configuration not stated) [US20250313563, Compound 772965] | 5.30 to 6.00 | < 5.30 |
| CCC1(c2cccc(C3CC3)c2)C2=CN=NC2NC2=C1C(=O)CC(C)(C)C2 (configuration not stated) [US20250313563, Compound 801316] | > 7.00 | > 7.00 |
| CC[C@@]1(c2cccc(-c3cnn(C)c3)c2)C2=CN=NC2NC2=C1C(=O)CC(C)(C)C2 (some centres not stated) [US20250313563, Compound 819576] | 6.00 to 7.00 | 5.30 to 6.00 |
| CC1(C)CC(=O)C2=C(C1)NC1=C(CN=N1)C21CN(c2ccncc2)C1 [US20250313563, Compound 912077] | < 5.30 | < 5.30 |
| CC[C@@]1(c2ccccc2)C2=CN=NC2NC2=C1C(=O)C[C@H](C(F)(F)F)C2 (some centres not stated) [US20250313563, Compound 806608] | 6.00 to 7.00 | < 5.78 |

| SMILES | pIC50 [1] | pIC50 [2] |
| --- | --- | --- |
| CC[C@@]1(c2cccc(-c3ccnc(C(F)(F)F)c3)c2)C2=CN=NC2NC2=C1C(=O)CC(C)(C)C2 (some centres not stated) [US20250313563, Compound 943989] | < 5.30 | < 5.30 |
| CC[C@]1(c2cccc([C@H]3CCOC3)c2)C2=CN=NC2NC2=C1C(=O)CC(C)(C)C2 (some centres not stated) [US20250313563, Compound 889556] | > 7.00 | > 7.00 |
| CCC1(c2cccc(C(C)C)c2)C2=C(N=NC2)NC2=C1C(=O)NC(C)(C)C2 (configuration not stated) [US20250313563, Compound 949326] | > 7.00 | 6.00 to 7.00 |
| CC1(C)CC(=O)C2=C(C1)NC1=C(CN=N1)C21CCN(S(=O)(=O)c2cccc(C(F)(F)F)c2)CC1 [US20250313563, Compound 947244] | > 7.00 | > 7.00 |
| Cc1cc([C@H]2CC[C@@]3(CC2)C2=C(N=NC2)NC2=C3C(=O)CC(C)(C)C2)ccn1 [US20250313563, Compound 948416] | > 7.00 | 6.00 to 7.00 |
| CC[C@@]1(c2cccc(-c3c(F)cncc3OC)c2)C2=C(N=NC2)NC2=C1C(=O)C(C)(C)C2 [US20250313563, Compound 952562] | 5.30 to 6.00 | < 5.30 |
| CCC1(c2cccc(-c3cncn3C)c2)C2=C(CC(C)(C)NC2=O)NC2N=NC(C)=C21 (configuration not stated) [US20250313563, Compound 947565] | > 7.00 | > 7.00 |
| CC[C@]1(c2cccc(C(F)F)c2)C2=CN=NC2NC2=C1C(=O)NC(C)(C)C2 (some centres not stated) [US20250313563, Compound 949007] | 5.30 to 6.00 | < 5.30 |
| CCC1(c2cccc(-c3cnn(C)c3)c2)C2=C(CC(C)(C)NC2=O)NC2N=NC(C(F)(F)F)=C21 (configuration not stated) [US20250313563, Compound 947405] | > 7.00 | > 7.00 and 6.00 to 7.00 |
| CCC1(c2cccc(-c3ccnc4c3CCCC4)c2)C2=C(N=NC2)NC2=C1C(=O)C(C)(C)C2 (configuration not stated) [US20250313563, Compound 952752] | > 7.00 | 6.00 to 7.00 |
| CCC1(c2cccc(N(C)c3ccc(F)nc3)c2)C2=CN=NC2NC2=C1C(=O)CC(C)(C)C2 (configuration not stated) [US20250313563, Compound 917152] | > 7.00 | 6.00 to 7.00 |
| CCC1(c2cccc(S(=O)(=O)C3CC3)c2)C2=C(CC(C)(C)NC2=O)NC2N=NC(C)=C21 (configuration not stated) [US20250313563, Compound 947562] | > 7.00 | > 7.00 |
| Cn1cc(S(=O)(=O)N2CCC3(CC2)C2=C(N=NC2)NC2=C3C(=O)CC(C)(C)C2)cn1 [US20250313563, Compound 901467] | > 7.00 and 6.00 to 7.00 | > 7.00 and 5.30 to 6.00 |
| CC[C@]1(c2cccc(-c3ccnc(C)c3OC)c2)C2=CN=NC2NC2=C1C(=O)CC(C)(C)C2 (some centres not stated) [US20250313563, Compound 946002] | < 5.30 | < 5.30 |
| CC[C@]1(c2cccc(S(=O)(=O)C(C)C)c2)C2=C(CC(C)(C)NC2=O)NC2N=NC(C(F)(F)F)=C21 (some centres not stated) [US20250313563, Compound 948419] | > 7.00 | > 7.00 |
| CC[C@]1(c2cccc(-c3ccnc(OC(F)(F)F)c3)c2)C2=CN=NC2NC2=C1C(=O)CC(C)(C)C2 (some centres not stated) [US20250313563, Compound 943988] | 6.00 to 7.00 | 5.30 to 6.00 |
| CCC1(c2cccc(O)c2)C2=C(N=NC2)NC2=C1C(=O)CC(C)(C)C2 (configuration not stated) [US20250313563, Compound 930334] | > 7.00 | 6.00 to 7.00 |
| CC[C@@]1(c2cccc(C(F)(F)F)c2)C2=CN=NC2NC2=C1C(=O)NC1(CCC1)C2 (some centres not stated) [US20250313563, Compound 914344] | 6.00 to 7.00 | < 5.30 |
| CC1(C)CC(=O)C2=C(C1)NC1=C(CN=N1)[C@]21COC2(CN(C(=O)C(F)(F)F)C2)C1 [US20250313563, Compound 948156] | > 7.00 | 6.00 to 7.00 |
| CC[C@]1(c2cccc(C(F)(F)F)c2)C2=CN=NC2NC2=C1C(=O)NCC2 (some centres not stated) [US20250313563, Compound 912622] | 6.00 to 7.00 | 5.30 to 6.00 |
| CC[C@]1(c2cccc(OC(C)C)c2)C2=CN=NC2NC2=C1C(=O)CC(C)(C)C2 (some centres not stated) [US20250313563, Compound 811564] | > 7.00 | > 7.00 |
| CC1(C)CC(=O)C2=C(C1)NC1=C(CN=N1)C21COC2(CN(C(=O)C(C)(C)C)C2)C1 (configuration not stated) [US20250313563, Compound 947303] | > 7.00 | > 7.00 |
| CCC1(c2cccc(Oc3ncccn3)c2)C2=CN=NC2NC2=C1C(=O)NC(C)(C)C2 (configuration not stated) [US20250313563, Compound 948764] | > 7.00 | 6.00 to 7.00 |
